Laboratory results from PubChem BioAssay (NCI).
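Test compounds were applied to cells in 96-well plates for 48 hours at 5 doses. GI50: concentration for 50% inhibition of growth. TGI denotes the concentration required for complete inhibition of growth.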

Assays:
Assay in all cases: NCI tumour cell line growth inhibition, 48 h
CAKI-1 renal = system: CAKI-1 renal
UACC-62 melanoma = system: UACC-62 melanoma
A498 renal = system: A498 renal
NCI-H226 lung = system: NCI-H226 lung
HL-60(TB) leukemia = system: HL-60(TB) leukemia
NCI-H522 lung = system: NCI-H522 lung
SF-268 CNS = system: SF-268 CNS
UO-31 renal = system: UO-31 renal
SK-OV-3 ovarian = system: SK-OV-3 ovarian

SMILES | TGI (CAKI-1 renal) [µM] | TGI (UACC-62 melanoma) [µM] | TGI (A498 renal) [µM] | TGI (NCI-H226 lung) [µM] | TGI (HL-60(TB) leukemia) [µM] | TGI (NCI-H522 lung) [µM] | TGI (SF-268 CNS) [µM] | TGI (UO-31 renal) [µM] | TGI (SK-OV-3 ovarian) [µM] | GI50 (UACC-62 melanoma) [µM] | GI50 (NCI-H226 lung) [µM] | GI50 (HL-60(TB) leukemia) [µM] | GI50 (NCI-H522 lung) [µM] | GI50 (SF-268 CNS) [µM] | GI50 (UO-31 renal) [µM] | GI50 (SK-OV-3 ovarian) [µM]
CCOP(=O)(OCC)/C(C#N)=C/c1ccco1 | > 100 | > 100 | > 100 | > 100 | > 100 | > 100 | > 100 | > 100 | > 100 |  |  |  |  |  |  | 
CCOC(=O)c1ccc(N2C(=O)/C(=C\OC)c3ccccc3C2=O)cc1 | > 100 | > 100 |  | > 100 |  | > 100 | > 100 | 62.8 | 41.9 |  |  |  |  |  |  | 
CC1NOC(=O)C1N=Nc1ccccc1Cl (stereo not given) | > 100 | > 100 | 49.3 |  | 52.2 | 34.2 | > 100 | 34.5 | 94.4 |  |  |  |  |  |  | 
CC(=O)/C=C/c1ccc(C2CC(C)=Nc3c(ccc4c3C(=O)c3ccccc3C4=O)N2)cc1 (stereo not given) | > 83.5 | > 100 | > 100 | > 100 | > 100 | > 100 | > 100 | > 100 | > 100 |  |  |  |  |  |  | 
CS(=O)c1ccc(COP(N)(=O)N(CCCl)CCCl)cc1 (stereo not given) | > 100 | > 100 | > 100 | > 100 | > 100 | > 100 | > 100 | > 100 | > 100 |  |  |  |  |  |  | 
ON=C1CCC(c2ccccc2)CC1 (stereo not given) | > 100 | > 100 | > 100 | > 100 | > 100 | > 100 | > 100 | > 100 | > 100 |  |  |  |  |  |  | 
COC(=O)c1nc(NC#N)[nH]c(=O)c1C | > 100 | > 100 | > 100 |  | > 100 | > 100 | > 100 | > 84.2 | > 100 |  |  |  |  |  |  | 
CCOC(=O)C1C(=O)c2ccccc2CN1Cc1ccccc1 (stereo not given) | > 100 | > 100 |  | > 100 | > 100 | > 100 | > 100 | > 100 | > 100 |  |  |  |  |  |  | 
O=c1cc2ccccc2nn1-c1ccccc1Cl | > 100 | > 100 | > 100 | > 100 |  |  | > 100 | 96.6 | > 100 |  |  |  |  |  |  | 
COC(=O)c1ccc(N=NN(C)CO)cc1 |  | > 100 | > 100 | > 100 | > 100 | > 100 |  | > 100 | > 100 |  |  |  |  |  |  | 
CCOC(=O)C(=O)Nc1c(N(CC)CC)n2ccccc2nc1=O | > 100 | > 100 | > 100 | > 100 |  | > 100 | > 100 | > 100 | > 100 |  |  |  |  |  |  | 
O=C(O)c1cc2c(cn1)[nH]c1ccccc12 | > 100 | > 100 |  | > 100 | > 100 | > 100 | > 100 | > 100 | > 100 |  |  |  |  |  |  | 
N.N.NC(CS)C(=O)[O-].NC(CS)C(=O)[O-].[Pt+4] (stereo not given) |  | > 50 |  | > 50 | > 50 | > 50 | > 50 | > 5 | > 50 | > 50 | > 50 | > 50 | > 50 | > 50 | > 5 | > 50
COC(=O)c1c(CC#N)cccc1CC#N | > 100 | > 100 |  | > 100 | > 100 | > 100 | > 100 | > 100 | > 100 |  |  |  |  |  |  | 
CC(C(=O)Oc1ccc2ccccc2c1-c1c(O)ccc2ccccc12)c1ccccc1 (stereo not given) | 24 | 27 | 29.4 | 26.5 | 35.1 |  |  | 6.37 | 29.6 |  |  |  |  |  |  | 
CN(c1ccccc1)C(c1ccccc1)C(O)c1ccccc1 (stereo not given) | 47.7 | 38.1 | 37.5 |  | 37.7 | 36.9 | 42.1 | 41.9 | 52.1 |  |  |  |  |  |  | 
CCOC(=O)C(C)c1cc(C2(C)OCCO2)c(C)o1 (stereo not given) |  | > 100 |  |  | > 100 |  | > 100 | > 100 | > 100 |  |  |  |  |  |  | 
Cc1cc(C)nc(Nc2nc3ccc([N+](=O)[O-])cc3[nH]2)n1 | > 100 | > 100 | > 100 | > 100 | > 100 | > 100 | > 100 | > 100 |  |  |  |  |  |  |  | 
O=C1C(=O)N(c2ccc(Cl)c(Cl)c2)C(=O)C(=O)C1c1nc2ccccc2o1 | > 100 | > 100 |  | > 100 | 53 | > 100 | > 100 | > 100 | > 100 |  |  |  |  |  |  | 
CC(=O)OC(C)(C)/C=C/C(=O)[C@](C)(O)[C@H]1[C@H](O)C[C@@]2(C)[C@@H]3CC=C4[C@@H](C[C@H](O)C(=O)C4(C)C)[C@]3(C)C(=O)C[C@]12C | < 0.01 | 2.17 | < 0.01 |  | < 0.01 | < 0.01 | < 0.01 | < 0.0167 | < 0.0234 |  |  |  |  |  |  | 
c1ccc(N=C2c3ccccc3C3=NCCCN32)cc1 | > 100 | > 100 | > 100 | > 100 |  | 96.8 | > 100 | > 100 |  |  |  |  |  |  |  | 
